The source of these data is ChEMBL document CHEMBL4350980, “Synthesis and structure-activity relationships of small-molecular di-basic esters, amides and carbamates as flaviviral protease inhibitors” (Eur J Med Chem, 2019).

Structures are written as SMILES. Activity calls are given as the source filed them. No cut-off for these calls is given here.

The target of data set [1] is Genome polyprotein (West Nile virus) (UniProt P06935). Briefly: Inhibition of West Nile virus His-tagged NS2B cofactor domain-NS3 protease expressed in Escherichia coli at 1 mM using 2-Abz-Gly-Leu-Lys-Arg-Gly-Gly-(3-NO2)-Tyr-NH2 as substrate preincubated with enzyme for 15 mins followed by substrate addition measured for every 1 sec for 15 mins by fluorescence microplate reader based HPLC analysis relative to control.
Chain of Genome polyprotein (West Nile virus) (P06935 whole entry, the tested form may be a part): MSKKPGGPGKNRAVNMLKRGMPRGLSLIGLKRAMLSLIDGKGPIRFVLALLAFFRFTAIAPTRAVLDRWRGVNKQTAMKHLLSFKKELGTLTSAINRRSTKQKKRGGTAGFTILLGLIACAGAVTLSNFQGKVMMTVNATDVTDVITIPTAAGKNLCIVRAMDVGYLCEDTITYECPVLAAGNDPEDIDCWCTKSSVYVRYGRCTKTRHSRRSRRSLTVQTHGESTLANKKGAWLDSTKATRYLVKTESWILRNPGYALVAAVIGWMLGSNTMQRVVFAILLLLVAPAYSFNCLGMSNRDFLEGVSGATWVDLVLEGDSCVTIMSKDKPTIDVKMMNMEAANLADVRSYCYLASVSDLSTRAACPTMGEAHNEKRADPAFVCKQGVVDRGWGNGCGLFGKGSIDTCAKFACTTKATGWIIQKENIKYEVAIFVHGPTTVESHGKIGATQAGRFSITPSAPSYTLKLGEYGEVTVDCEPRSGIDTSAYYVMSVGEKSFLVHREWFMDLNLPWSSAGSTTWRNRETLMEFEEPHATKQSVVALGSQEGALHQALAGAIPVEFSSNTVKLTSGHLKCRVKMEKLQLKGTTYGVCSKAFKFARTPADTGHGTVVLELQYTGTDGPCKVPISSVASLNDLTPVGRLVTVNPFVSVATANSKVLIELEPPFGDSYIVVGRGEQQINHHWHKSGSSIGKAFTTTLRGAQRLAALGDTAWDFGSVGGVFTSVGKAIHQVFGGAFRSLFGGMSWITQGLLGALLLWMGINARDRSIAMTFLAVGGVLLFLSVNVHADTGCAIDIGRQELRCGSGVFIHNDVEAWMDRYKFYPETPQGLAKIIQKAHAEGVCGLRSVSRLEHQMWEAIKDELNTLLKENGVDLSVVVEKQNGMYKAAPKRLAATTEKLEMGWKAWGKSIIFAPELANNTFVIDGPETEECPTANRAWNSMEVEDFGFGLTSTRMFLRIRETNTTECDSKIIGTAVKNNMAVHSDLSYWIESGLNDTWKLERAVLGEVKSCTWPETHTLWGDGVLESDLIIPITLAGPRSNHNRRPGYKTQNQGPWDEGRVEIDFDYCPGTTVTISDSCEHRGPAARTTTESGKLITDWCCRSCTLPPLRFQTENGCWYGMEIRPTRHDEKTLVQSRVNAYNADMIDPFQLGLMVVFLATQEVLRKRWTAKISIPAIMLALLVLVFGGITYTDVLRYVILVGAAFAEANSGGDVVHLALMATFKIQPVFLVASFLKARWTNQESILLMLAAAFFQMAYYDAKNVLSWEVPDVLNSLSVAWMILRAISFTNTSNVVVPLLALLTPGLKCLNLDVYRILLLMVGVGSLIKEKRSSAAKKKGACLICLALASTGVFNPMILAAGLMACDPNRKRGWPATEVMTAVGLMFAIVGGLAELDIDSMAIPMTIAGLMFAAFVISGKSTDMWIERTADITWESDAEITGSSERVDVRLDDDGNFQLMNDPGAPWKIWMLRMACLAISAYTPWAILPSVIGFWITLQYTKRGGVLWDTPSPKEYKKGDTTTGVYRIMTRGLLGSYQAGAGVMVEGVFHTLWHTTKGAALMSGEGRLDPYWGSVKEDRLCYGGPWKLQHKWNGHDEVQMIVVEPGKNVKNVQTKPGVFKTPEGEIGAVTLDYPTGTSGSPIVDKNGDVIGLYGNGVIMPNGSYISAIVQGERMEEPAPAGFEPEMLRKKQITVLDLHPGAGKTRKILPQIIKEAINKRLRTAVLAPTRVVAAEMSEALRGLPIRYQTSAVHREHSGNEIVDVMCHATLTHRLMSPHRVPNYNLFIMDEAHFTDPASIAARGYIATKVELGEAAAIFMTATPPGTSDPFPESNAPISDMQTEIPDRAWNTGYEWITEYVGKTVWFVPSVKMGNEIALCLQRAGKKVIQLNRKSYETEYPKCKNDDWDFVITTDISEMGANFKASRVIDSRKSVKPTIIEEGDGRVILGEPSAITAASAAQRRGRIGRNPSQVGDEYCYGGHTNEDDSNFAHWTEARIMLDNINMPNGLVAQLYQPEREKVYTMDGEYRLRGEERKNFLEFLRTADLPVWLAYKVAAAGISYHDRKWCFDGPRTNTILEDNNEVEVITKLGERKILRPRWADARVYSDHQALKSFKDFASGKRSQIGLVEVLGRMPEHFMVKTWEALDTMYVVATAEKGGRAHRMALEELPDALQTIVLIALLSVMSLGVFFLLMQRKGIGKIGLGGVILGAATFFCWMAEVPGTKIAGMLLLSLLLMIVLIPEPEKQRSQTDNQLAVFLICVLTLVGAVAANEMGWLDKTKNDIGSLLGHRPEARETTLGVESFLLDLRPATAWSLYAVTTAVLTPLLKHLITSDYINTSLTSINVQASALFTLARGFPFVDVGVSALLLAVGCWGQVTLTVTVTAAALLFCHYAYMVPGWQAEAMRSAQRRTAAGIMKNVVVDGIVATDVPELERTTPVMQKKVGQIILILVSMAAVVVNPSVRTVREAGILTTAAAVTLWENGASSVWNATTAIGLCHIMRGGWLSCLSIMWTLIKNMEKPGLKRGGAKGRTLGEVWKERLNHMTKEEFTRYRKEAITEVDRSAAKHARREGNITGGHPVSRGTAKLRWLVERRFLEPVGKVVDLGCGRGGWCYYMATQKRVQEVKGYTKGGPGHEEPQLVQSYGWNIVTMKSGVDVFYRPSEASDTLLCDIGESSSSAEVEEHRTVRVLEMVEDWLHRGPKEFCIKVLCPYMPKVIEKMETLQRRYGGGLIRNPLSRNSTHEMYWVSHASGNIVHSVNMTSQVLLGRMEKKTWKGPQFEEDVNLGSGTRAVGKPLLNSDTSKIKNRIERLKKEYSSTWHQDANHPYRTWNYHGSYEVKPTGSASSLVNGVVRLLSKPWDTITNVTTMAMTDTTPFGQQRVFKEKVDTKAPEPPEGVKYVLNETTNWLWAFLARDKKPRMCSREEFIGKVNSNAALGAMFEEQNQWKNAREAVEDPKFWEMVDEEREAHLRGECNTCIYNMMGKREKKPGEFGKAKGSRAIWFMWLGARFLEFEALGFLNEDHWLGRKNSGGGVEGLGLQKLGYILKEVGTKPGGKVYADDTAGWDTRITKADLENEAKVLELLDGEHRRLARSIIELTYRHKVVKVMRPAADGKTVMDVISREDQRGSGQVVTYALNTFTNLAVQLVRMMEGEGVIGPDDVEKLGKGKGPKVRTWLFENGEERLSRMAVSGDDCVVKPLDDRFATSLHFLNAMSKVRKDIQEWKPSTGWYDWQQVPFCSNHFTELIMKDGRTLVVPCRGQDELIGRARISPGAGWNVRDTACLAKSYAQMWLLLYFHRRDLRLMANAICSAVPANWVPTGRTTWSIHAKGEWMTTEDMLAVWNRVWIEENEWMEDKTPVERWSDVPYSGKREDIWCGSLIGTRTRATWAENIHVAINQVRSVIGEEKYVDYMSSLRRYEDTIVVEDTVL

Data set [2] deals with T1, Prothrombin (Homo sapiens, UniProt P00734). Briefly: Inhibition of thrombin (unknown origin) at 500 uM using Boc-Val-Pro-Arg-AMC as substrate preincubated with enzyme for 15 mins followed by addition of substrate by fluorescence plate reader analysis relative to control.
In data set [3] the target is T2, Trypsin (Homo sapiens, UniProt P07477+P07478+P35030). Briefly: Inhibition of trypsin (unknown origin) at 1 mM using Boc-Val-Pro-Arg-AMC as substrate preincubated with enzyme for 15 mins followed by addition of substrate by fluorescence plate reader analysis relative to control. It counts as protein assay.
The target of data set [4] is Genome polyprotein (dengue virus type 2) (UniProt P29990). The data set can be described thus: Inhibition of dengue virus serotype 2 His-tagged NS2B cofactor domain-NS3 protease expressed in Escherichia coli at 1 mM using 2-Abz-Nle-Lys-Arg-Arg-Ser-(3-NO2)-Tyr-NH2 as substrate preincubated with enzyme for 15 mins followed by substrate addition measured for every 1 sec for 15 mins by fluorescence plate reader based HPLC analysis relative to control.

In data set [5] the target is T1, Prothrombin. The data set can be described thus: Inhibition of thrombin (unknown origin) at 25 uM using Boc-Val-Pro-Arg-AMC as substrate preincubated with enzyme for 15 mins followed by addition of substrate by fluorescence plate reader analysis relative to control.
For data set [6], the target named is Genome polyprotein (dengue virus type 2) (UniProt P29990). The data set can be described thus: Inhibition of dengue virus serotype 2 His-tagged NS2B cofactor domain-NS3 protease expressed in Escherichia coli at 50 uM using 2-Abz-Nle-Lys-Arg-Arg-Ser-(3-NO2)-Tyr-NH2 as substrate preincubated with enzyme for 15 mins followed by substrate addition measured for every 1 sec for 15 mins by fluorescence plate reader based HPLC analysis relative to control.

The target in data set [7] is Genome polyprotein (West Nile virus) (UniProt P06935). The data set can be described thus: Inhibition of West Nile virus His-tagged NS2B cofactor domain-NS3 protease expressed in Escherichia coli at 50 uM using 2-Abz-Gly-Leu-Lys-Arg-Gly-Gly-(3-NO2)-Tyr-NH2 as substrate preincubated with enzyme for 15 mins followed by substrate addition measured for every 1 sec for 15 mins by fluorescence microplate reader based HPLC analysis relative to control.

Data set [8] deals with T2, Trypsin. Briefly: Inhibition of trypsin (unknown origin) at 50 uM using Boc-Val-Pro-Arg-AMC as substrate preincubated with enzyme for 15 mins followed by addition of substrate by fluorescence plate reader analysis relative to control. It is filed as protein assay.
Data set [9] addresses T2, Trypsin. Briefly: Inhibition of trypsin (unknown origin) using Boc-Val-Pro-Arg-AMC as substrate preincubated with enzyme for 15 mins followed by addition of substrate by fluorescence plate reader analysis. It is filed as protein assay.
In data set [10] the target is Genome polyprotein (dengue virus type 2) (UniProt P29990). Briefly: Time-dependent inhibition of dengue virus serotype 2 His-tagged NS2B cofactor domain-NS3 protease expressed in Escherichia coli at 50 uM using 2-Abz-Nle-Lys-Arg-Arg-Ser-(3-NO2)-Tyr-NH2 as substrate preincubated with enzyme for 20 to 40 mins followed by substrate addition measured for every 1 sec for 15 mins by fluorescence plate reader based HPLC analysis.

The test system of a further data set is dengue virus type 2. The data set can be described thus: Reversible covalent binding affinity at dengue virus serotype 2 His-tagged NS2B cofactor domain-NS3 protease S135A mutant expressed in Escherichia coli assessed as acyl-enzyme adduct formation at 100 uM incubated for 24 hrs by ESI-MS analysis.
The target in data set [11] is Genome polyprotein (dengue virus type 2) (UniProt P29990). Briefly: Reversible covalent binding affinity at dengue virus serotype 2 His-tagged NS2B cofactor domain-NS3 protease expressed in Escherichia coli assessed as acyl-enzyme adduct formation at 100 uM incubated for 2 hrs by ESI-MS analysis.
For data set [12], the target named is T1, Prothrombin. The data set can be described thus: Inhibition of thrombin (unknown origin) using Boc-Val-Pro-Arg-AMC as substrate preincubated with enzyme for 15 mins followed by addition of substrate by fluorescence plate reader analysis.
In data set [13] the target is Genome polyprotein (dengue virus type 2) (UniProt P29990). The data set can be described thus: Reversible covalent binding affinity at dengue virus serotype 2 His-tagged NS2B cofactor domain-NS3 protease expressed in Escherichia coli assessed as acyl-enzyme adduct formation at 100 uM incubated for 24 hrs by ESI-MS analysis.
Data set [14] has the same target. The data set can be described thus: Reversible covalent binding affinity at dengue virus serotype 2 His-tagged NS2B cofactor domain-NS3 protease expressed in Escherichia coli assessed as acyl-enzyme adduct formation at 100 uM incubated for 5 to 24 hrs by ESI-MS analysis.
Data set [15] in a line: Stability of compound in TRIS assay buffer at pH 7.5 to 9. It is filed as physicochemical.
Data set [16] is described as follows: Stability of compound in phosphate buffer at pH 7.5 to 11. It is filed as physicochemical.
Data set [17] deals with Genome polyprotein (dengue virus type 2) (UniProt P29990). Briefly: Time-dependent inhibition of dengue virus serotype 2 His-tagged NS2B cofactor domain-NS3 protease expressed in Escherichia coli at 200 uM using 2-Abz-Nle-Lys-Arg-Arg-Ser-(3-NO2)-Tyr-NH2 as substrate preincubated with enzyme for 20 to 40 mins followed by substrate addition measured for every 1 sec for 15 mins by fluorescence plate reader based HPLC analysis.

One may read the inhibition as the relative decrease from the control value, in per cent. For `Nc1ccc(NC(=O)Oc2ccc(N)cc2)cc1`, the inhibition was 72.8% in data set [1], 83.3% on Prothrombin [2], 99.2% against Trypsin [3] and 33.7% in data set [4].
Consider `CN(C)C(=O)Oc1ccc(NC(=N)N)cc1C(=O)Nc1ccc(CN)cc1`, for which the inhibition came out at 76.1% in [1], 24.3% on Prothrombin [2], 19.3% against Trypsin [3] and 56% in data set [4].
`N=C(N)NCCCC(=O)Oc1ccc(NC(=N)N)cc1`: the inhibition against Prothrombin [5] is 13.2%; in data set [6] it was 4.2%; in [7], < 5%; on Trypsin [8], 18.3%.
As for `CN(C)C(=O)Oc1cc(NC(=N)N)ccc1C(=O)Nc1ccc(CN)cc1`, the inhibition was found to be 73.3% in [1], 12.4% at Prothrombin [2], 43.7% at Trypsin [3] and 74.4% in [4].
In general, IC50 refers to the midpoint of a concentration-inhibition curve. The low end stands for inhibition by little substance, the high end for a need for much substance. With `N=C(N)Nc1ccc(OC(=O)c2ccc(N)cc2)cc1`, the inhibition against Prothrombin [5] was 76.7%; in data set [6] it was 45.4%; in data set [7], < 5%; at Trypsin [8] it was 101%. Further, the IC50 is 2.78 nM against Trypsin [9] and 17600 nM against Prothrombin [12]. Further, the TDI result in data set [10] is “Active”. Moreover, the result (in the data set with dengue virus type 2; in data set [11]) was inactive. Besides, the outcome in [13] was Active.
As for `CN(C(=O)Oc1ccc(CN)cc1)c1ccc(N)cc1`, the inhibition in data set [1] came to 59.3%; against Prothrombin [2], 46.9%; on Trypsin [3], 95.6%; in [4], 22.9%.
Take `CN(C)C(=O)COC(=O)Cc1ccc(OC(=O)c2ccc(NC(=N)N)cc2)cc1` [CAMOSTAT]: the inhibition worked out at 94% on Prothrombin [5], 19.6% in data set [6], 12.6% in data set [7] and 100% against Trypsin [8]. On Trypsin [9], the IC50 was determined as 3.5 nM.
For the compound `N=C(N)Nc1ccc(NC(=O)c2ccc(NC(=N)N)cc2)cc1`, the inhibition was determined as 23.9% against Prothrombin [5], 23.2% in data set [6], 17.9% in data set [7] and 87.2% on Trypsin [8]. Moreover, the result in [14] was inactive. For the same compound, the TDI entry in data set [10] was “inactive”. For the same compound, the Stability entry in [15] and in data set [16] was “Stable” throughout.
Regarding `CN(C)C(=O)Oc1cc(NC(=N)N)ccc1NC(=O)c1ccc(NC(=N)N)cc1`, the inhibition in data set [1] was determined as 23.9%; at Prothrombin [2], 67.8%; at Trypsin [3] it was 99.2%; in [4] it was 20.2%.
For `N=C(N)Nc1ccc(C(=O)Nc2cccc(NC(=N)N)c2)cc1`, the inhibition against Prothrombin [5] is 16.4%; in [6], 36.8%; in data set [7], < 5%; on Trypsin [8] it was 94.6%. For the same compound, the IC50 at Trypsin [9] is 23900 nM.
Take `N=C(N)Nc1ccc(C(=O)Oc2ccc(CN)cc2)cc1`: the inhibition at Prothrombin [5] was determined as 92.5%; in data set [6], 40.1%; in [7] it was 36.5%; against Trypsin [8], 101%. Further, the IC50 is 1.56 nM on Trypsin [9] and 530 nM against Prothrombin [12]. For the same compound, the TDI entry in data set [10] was “Active”.
Consider `N=C(N)Nc1ccc(NC(=O)Oc2ccc(N)cc2)cc1`, for which the inhibition at Prothrombin [5] worked out at 12.1%; in [1] it was 61.9%; against Prothrombin [2] it was 12.1%; in data set [6] it was 52%; in [7], 61.9%; at Trypsin [3] it was 101%. In addition, the inhibition came to 101% on Trypsin [8] and 52% in data set [4]. Moreover, in data set [14], the outcome was inactive. Also, in [17], the TDI entry was “inactive”. Further, the IC50 against Trypsin [9] was determined as 46300 nM.
With `N=C(N)NCc1ccc(NC(=O)Oc2ccc(N)cc2)cc1`, the inhibition in data set [1] was determined as 68.8%; against Prothrombin [2] it was 44.4%; at Trypsin [3], 98.4%; in data set [4], 60.8%.
On the same counts, the results for `CN(C(=O)Oc1ccc(CN)cc1)c1ccc(CN)cc1` are 62.9%, 12.2%, 43.9% and 31.3%.
On the same counts, the results for `CN(C(=O)Oc1ccc(N)cc1)c1ccc(N)cc1` are 68%, 72.7%, 95.9% and 29.8%.
Take `N=C(N)Nc1ccc(C(=O)Oc2ccc(N)cc2)cc1`: the inhibition was 97.1% against Prothrombin [5], 8.8% in data set [6], < 5% in data set [7] and 102% on Trypsin [8]. The half-inhibitory concentration (IC50) against Trypsin [9] came out at 28 nM; on Prothrombin [12], 800 nM. Moreover, the Stability result in [15] and in data set [16] was “Stable” each time.
As to `N=C(N)NCCCCC(=O)Oc1ccc(NC(=N)N)cc1`, the inhibition was 72.5% at Prothrombin [5], 4.6% in data set [6], < 5% in data set [7] and 65.9% against Trypsin [8].
Consider `N=C(N)NCCCCOC(=O)c1ccc(NC(=N)N)cc1`, for which the inhibition against Prothrombin [5] amounted to 27.3%; in [6], 49%; in data set [7], 17.1%; on Trypsin [8] it was 84%. In addition, the IC50 at Trypsin [9] stood at 8270 nM.
Regarding `N=C(N)Nc1ccc(C(=O)Oc2cccc(NC(=N)N)c2)cc1`, the inhibition at Prothrombin [5] is 100%; in [6] it was 51.3%; in [7], 17.5%; against Trypsin [8], 100%.
`N=C(N)NCCCOC(=O)c1ccc(NC(=N)N)cc1`: the inhibition at Prothrombin [5] was 22.8%; in data set [6], 56.8%; in data set [7], < 5%; at Trypsin [8], 78.9%. Also, the IC50 at Trypsin [9] was found to be 9840 nM. Further, the Stability result in data set [15] and in data set [16] was “Stable” in each case.
